Paper PMC4627731, “Leishmanicidal Effect of Synthetic trans-Resveratrol Analogs” (PLoS ONE, 2015)
Several values for one entry are separate records, joined by “and”; a condition that tells them apart may be missing. Identical values can stand only once. Like-named read-outs stand apart in the source and are kept apart here.

Experiments:
[1] = system: Leishmania amazonensis promastigotes; test: Anti-promastigote activity (XTT); type: cell-based; settings: read-out: IC50 Promastigotes
Experimental: L. amazonensis (WHOM/BR/75/Josefa) promastigotes were cultured at 26°C in Schneider insect medium (Sigma), 10% fetal calf serum (Gibco-BRL, MD, US.) and 20 μg/mL of gentamycin (Schering-Plough, Rio de Janeiro, Brazil).
The leishmanicidal properties of the analogs were evaluated by measuring promastigotes’ mitochondrial activity using the XTT method with 2,3-bis-[2-methoxy-4-nitro-5-sulphophenyl]-2H-tetrazolium-5-carboxanilida, Sigma) as described previously. […] Sodium azide (10 μM) was used as a control, and the reaction product was read at 450 nm.

[2] = system: Leishmania amazonensis promastigotes; test: Annexin V binding assay; type: cell-based; settings: 48 h; piceatannol 100 μM, miltefosine 30 μM
Experimental: Double staining for annexin V-fluorescein isothiocyanate (FITC) and PI was performed with the Annexin-V apoptosis detection kit (Molecular Probes). […] They were then washed twice in cold annexin V-buffer and centrifuged at 2760 x g for 10 min. Pellets were resuspended in 20 μL of annexin V FITC, and after 15 min of incubation in the dark, 480 μL of annexin V-buffer was added according to the manufacturer instructions. Annexin V-FITC labeling was recorded on a BD FACScalibur (Becton and Dickson) and analyzed using CellQuest software.

[3] = system: L. amazonensis intracellular amastigotes; test: Anti-amastigote activity in infected macrophages; type: cell-based, Leishmania amazonensis; settings: for IC50: L. amazonensis in murine peritoneal macrophages, 24 h treatment; for SI (selectivity index; therapeutic index): ratio of CC50 on murine peritoneal macrophages to IC50 on L. amazonensis intracellular amastigotes
Experimental: Mice peritoneal macrophages obtained after stimulation with thioglycolate for 3 days were harvested in RPMI 1640 medium (LGC Biotecnologia, São Paulo, Brazil), 20 μg/mL of gentamycin and were plated onto 13 mm^2 coverslips inside 24-well plates for adherence for 2 h at 37°C, 5% CO2. Non-adherent cells were removed, and the macrophages were incubated overnight in RPMI supplemented with 10% FCS, as described above. Adhered macrophages were infected with L. amazonensis promastigotes (stationary growth phase) at a 10:1 parasite/macrophage ratio and incubated for 1 h at 34°C, 5% CO2. Free parasites were washed out with 0.01 M phosphate buffered saline (PBS), and the cultures maintained for 24 h at 37°C, 5% CO2. Infected macrophage cultures were treated with different concentrations of the analogs for an additional 24 h at 37°C, 5% CO2. Monolayers were then washed with PBS at 37°C, fixed in methanol, and stained with Giemsa. The number of amastigotes and the percentage of infected macrophages were determined by counting at least 200 cells in duplicate cultures. Endocytic indices were obtained by multiplying the percentage of infected macrophages by the mean number of amastigotes per infected macrophage. The results were expressed as the percentage of surviving macrophages based on endocytic indices of treated and untreated macrophages as reported previously.
The selectivity index was calculated as the ratio of murine peritoneal macrophages CC50 by L. amazonensis intracellular amastigotes IC50.

[4] = system: murine peritoneal macrophages; test: Nitric oxide production by macrophages (Griess); type: cell-based, mouse
Experimental: Thioglycolate-stimulated peritoneal macrophages were obtained as described above (10^6 cells/well in 24-well plate) and were activated with 1 μg/ml LPS (Sigma-Aldrich) or left untreated. […] The nitrite concentrations in the culture supernatants were determined using the Griess method. The reaction was read at 540 nm, and the concentration of NO2 ^- determined using a standard curve of sodium nitrite. The results are expressed as micromolar concentrations of nitrite.

[5] = Nitric oxide-trapping capacity, cell-free SNAP system; settings: 1 mM SNAP, 6 h, rutin 1 mM, pterostilbene 33.2 μM, piceatannol 45 μM, polydatin 29 μM, oxyresveratrol 30.5 μM
Experimental: A cell-free system with an NO donor was used to test the capacity of resveratrol analogs to trap NO. SNAP (s-nitroso n-acetyl DL-penicillamine, Sigma) liberates nitric oxide in solution, which is then transformed to nitrite in the medium. The addition of a NO scavenger to the SNAP solution results in nitrite decay in the supernatant. […] One milimolar rutin (Sigma), a known NO scavenger, was used as a positive control for this assay. After 6 h of incubation, the nitrite concentration was determined using the Griess method. The results are expressed as the μM concentration of nitrite calculated in comparison with the sodium nitrite standard curve.

[6] = system: murine peritoneal macrophages; test: Detection of reactive oxygen species (DHR 123); type: cell-based, mouse; settings: compounds at amastigote IC50
Experimental: Mice peritoneal macrophages were adhered to 96-well opaque culture plates and then infected or not with L. amazonensis promastigotes. […] The cells were then stained with 50 μM dihydrorhodamine 123 (DHR 123, Life Technologies), and ROS was measured immediately using 500/526 nm excitation/emission wavelengths.

[7] = system: Leishmania amazonensis promastigotes; test: Cell cycle analysis (PI, flow cytometry); type: cell-based; settings: 48 h; for Effect on the cell cycle of the parasite: at promastigote IC50; for % cells in different stages of the cell cycle: G0/G1 / % cells in different stages of the cell cycle: G2/M / % cells in different stages of the cell cycle: S / % cells in different stages of the cell cycle: Sub-G0 / % cells: Hyperploidies: pterostilbene 17.7 μM, piceatannol 65 μM, polydatin 95.4 μM, oxyresveratrol 65 μM, mean ± SEM
Experimental: The cells were washed with PBS and fixed in 70% (v/v) ice-cold methanol/PBS for at least 1 h at 4°C. The fixed cells were washed once with PBS and then incubated in PBS supplemented with 10 μg/mL propidium iodide (PI) and 20 μg/mL RNAse at 37°C, 45 min, as reported. For each sample, 10000 events were collected on a BD FACScalibur (Becton and Dickson) and analyzed using CellQuest software.

[8] = Cytotoxicity for host macrophages (XTT); type: cell-based; settings: mouse, murine peritoneal macrophages
Experimental: After 3 h of incubation, the reaction product was read at 450 nm. The results are expressed in percentage of viable cells compared to untreated control.

[9] = system: Leishmania amazonensis promastigotes; test: Mitochondrial membrane potential (JC-1); type: cell-based; settings: 65 μM, 48 h, JC-1 red/green ratio
Experimental: Change in ΔΨm was measured using the mitochondria staining kit (Sigma-Aldrich).

[10] = system: promastigotes of L. donovani; settings: cited from earlier work
[11] = system: promastigotes of L. infantum; settings: cited from earlier work
[12] = system: promastigotes of L. major; settings: cited from earlier work
[13] = system: amastigotes of L. donovani in RAW macrophages; settings: cited from earlier work
[14] = system: promastigote form of L. infantum; parameters: method as in PMID 23103597; settings: cited from earlier work
[15] = system: amastigote form of L. infantum; parameters: method as in PMID 23103597; settings: cited from earlier work
[16] = Leishmania amazonensis, Peritoneal macrophage
[17] = macrophages infected with L. amazonensis, 29 μM polydatin, 30.5 μM oxyresveratrol
[18] = L. amazonensis infected macrophages
[19] = infected and PMA-stimulated macrophages
[20] = uninfected macrophages stimulated with 1 μg/mL PMA
[21] = Leishmania amazonensis, 48 h, L. amazonensis promastigotes, 48 h treatment, XTT
[22] = uninfected macrophages stimulated with LPS, 33.2 μM pterostilbene, 45 μM piceatannol
[23] = L. amazonensis promastigotes, 48 h treatment, XTT
[24] = uninfected macrophages not stimulated, 33.2 μM pterostilbene, 29 μM polydatin

Compound	IC50 [3, 16] [µM]	SI (selectivity index; therapeutic index) [3]	Decrease of NO levels (NO scavenging) [5]	Reduction of ROS levels [6, 18] [fold]	Reduction of ROS levels [6, 19] [fold]	Reduction of ROS levels [6, 20] [fold]	Reduction of ROS levels ([6]; uninfected macrophages) [fold]	Effect on the cell cycle of the parasite [7]	% cells in different stages of the cell cycle: G0/G1 [7] [%]	% cells in different stages of the cell cycle: G2/M [7] [%]	% cells in different stages of the cell cycle: S [7] [%]	% cells in different stages of the cell cycle: Sub-G0 [7] [%]	% cells: Hyperploidies [7] [%]	other results
C[C@@H]1[C@H](O)[C@@H](C)/C=C/C=C/C=C/C=C/C=C/C=C/C=C/[C@H](O[C@@H]2O[C@H](C)[C@@H](O)[C@H](N)[C@@H]2O)C[C@@H]2O[C@](O)(C[C@@H](O)C[C@@H](O)[C@H](O)CC[C@@H](O)C[C@@H](O)CC(=O)O[C@H]1C)C[C@H](O)[C@H]2C(=O)O [Amphotericin B, reference compound]														IC50 ([1]; Leishmania amazonensis, 48 h): 0.1 µM
CCCCCCCCCCCCCCCCOP(=O)([O-])OCC[N+](C)(C)C [Miltefosine, reference compound]														Increase of annexin-V positive promastigotes in relation to untreated control [2]: 13.2 fold
Oc1cc(O)cc(/C=C/c2ccc(O)cc2O)c1 [Oxyresveratrol, trans-2,3′,4,5′-tetrahydroxystilbene]	30.5	4.2	did not reduce the levels of NO	4.6	4.7	4.8	3.6	did not alter the cell cycle	34.380 ± 2.300	21.073 ± 2.386	9.570 ± 0.444	10.413 ± 3.895	24.862 ± 2.500	IC50 ([1]; Leishmania amazonensis, 48 h): 65 µM; Decrease of NO production [4, 17]: 2.0 fold
Oc1cc(O)cc(/C=C/c2ccc(O)c(O)c2)c1 [Piceatannol, trans-3,4,3',5'-tetrahydroxystilbene]	45	>8.9	did not reduce the levels of NO	5.8	6.6	4.3	3.4		21.890 ± 0.840	14.273 ± 0.966	8.167 ± 0.522	30.990 ± 1.544	24.947 ± 0.801	IC50 [1, 21]: 65 µM; CC50 at 24 h [8]: > 400 µM; Decrease of NO production [4, 22]: 5.0 fold; Decrease of cells in G0-G1 phase ([7]; 65 μM): 1.7 fold; Increase of cells in Sub-G0 phase ([7]; 65 μM): 5 fold; Reduction in the mitochondrial membrane potential (ΔΨm) [9]: 2.8 fold; Increase of annexin-V positive promastigotes in relation to untreated control [2]: 2.5 fold; IC50 [10]: 17.2 µM; IC50 promastigotes of L. donovani [10]: 4.2 µg/mL; IC50 [11]: 16 µM; IC50 promastigotes of L. infantum [11]: 3.9 µg/mL; IC50 [12]: 23.3 µM; IC50 promastigotes of L. major [12]: 5.7 µg/mL; IC50 [13]: 30.3 µM; IC50 amastigotes of L. donovani in RAW macrophages [13]: 7.4 µg/mL
OC[C@H]1O[C@@H](Oc2cc(O)cc(/C=C/c3ccc(O)cc3)c2)[C@H](O)[C@@H](O)[C@@H]1O [Polydatin, resveratrol-3-O-b-mono-D-glucoside]	29	5.2	did not reduce the levels of NO	2.1	2.2	2.0	1.8	did not alter the cell cycle	32.040 ± 2.699	20.090 ± 2.661	8.698 ± 0.946	13.250 ± 4.747	26.233 ± 1.273	IC50 [1, 23]: 95.5 µM; IC50 [1, 21]: 95 µM; Decrease of NO production [4, 17]: 6.1 fold; Decrease of NO production [4, 24]: 2.8 fold
C[C@@H]1O[C@@H](OC[C@H]2O[C@@H](Oc3c(-c4ccc(O)c(O)c4)oc4cc(O)cc(O)c4c3=O)[C@H](O)[C@@H](O)[C@@H]2O)[C@H](O)[C@H](O)[C@H]1O [rutin, reference compound]			72%											
trans-3,5-dimethoxy-4-hydroxystilbene [Pterostilbene]			22%	1.6	1.6	2.0		did not alter the cell cycle	42.380 ± 1.006	24.713 ± 1.331	7.823 ± 0.915	4.423 ± 0.216	20.873 ± 0.309	IC50 ([1]; L. amazonensis promastigotes, 48 h treatment, XTT, listed as pterostilbene): 18 µM; IC50 [1, 23]: 17.7 µM; IC50 [3]: 33.2 µM; Decrease of NO production [4, 24]: 3.8 fold; Decrease of NO production [4, 22]: 5.3 fold; LD50 promastigote form of L. infantum [14]: 7.6 μg/mL and 29.6 μM; LD50 amastigote form of L. infantum [15]: 10.3 μg/mL and 40.2 μM
